Measurements published in US7625928B2, “Nitroxide radioprotector formulations and methods of use” (priority 2002, dated 2009).

Test: In vitro percutaneous absorption of Tempol after multiple applications of Formulation V, Franz static diffusion cells, 30-minute exposures (Example II)
Type: in vitro ADME, human
Conditions: test 3, three applications, result in words
Experimental: The skin was wiped with two dry cotton swabs after each application. Upon completion of the final application and skin wiping, the stratum corneum was removed from the skin. […] Franz static diffusion cells (15 mm diameter orifice, O-ring joint, Crown Bio Scientific, Clinton, N.J.) were mounted on 9-cell manifolds and maintained at a constant temperature of 32° C. by use of re-circulating water baths. […] Each diffusion cell was assembled by placing the excised human abdominal skin from a single donor dermal-side down and then a Teflon® O-ring (which rested in the groove of the donor side, top half, of the diffusion cell. The donor side (top half) of the diffusion cell was then placed on top of the O-ring resting on the skin and held in place by use of a pinch clamp. The joint between the donor and receptor compartments of each cell was wrapped with Parafilm® to prevent evaporation of the receptor solution. […] Air bubbles were dispelled from under the skin. […] The formulation was applied in an alternating fashion to 6 diffusion cells at 0.18 mL of formulation per cell. The diffusion cell sampling port was sealed with […] ® to prevent evaporation. […] If appropriate, the cell was re-dosed with test formulation after removal of the previous dose using two cotton swabs wiped across the skin surface. […]

Compound: CC1(C)CC(O)CC(C)(C)N1[O] [Tempol, 4-hydroxy-2,2,6,6-tetramethylpiperidine-1-oxyl]
- third application levels versus levels in the second time point: twice as high
